In patent publication US20220048987A1, “METHOD OF TREATMENT TO PREVENT OR REVERSE AGE-ASSOCIATED INFLAMMATION, COGNITIVE DECLINE, AND NEURODEGENERATION” (The Board of Trustees of the Leland Stanford Junior …, priority 2020, published 2022):
“Also recorded” adds a separate entry of the source.

Columns and labels:
Assay type in all cases: in vivo, mouse
aged mice [1] = test: Spatial memory: Novel Object Location and Barnes Maze tasks; conditions: aged (20-22 mo) mice, 2.5 mg/kg/d, 6 weeks
Experimental: The Novel Object Location protocol was adopted from Wimmer et al. with minor modifications. Mice interacted with the chamber (a 16 in×16 in×15 in white box made from PVC) over the course of 2 days involving 1 habituation period, 3 training sessions, and 1 testing session. On the day of training (day 1) mice were placed in the middle of an empty chamber and given 5 minutes to explore the chamber. Mice were then placed in an independent holding cage for an inter-training interval (ITI) of 3 minutes. The objects used were a plastic bottle and seasoning shaker of similar size (3 in H×1 in W×1 in L). After the habituation session, the mice then underwent three 10-minute training sessions each with a 3 min ITI in between sessions. […] Animals were recorded a JVC Everio HD camcorder GZE200 and analyzed with Kinovea video tracking software. Exploration of the objects was defined as the amount of time mice were oriented toward an object with its nose within 1 cm of it, and was scored by an experimenter blind to experimental group. […]
After testing each mouse, the maze was cleaned with 70% ethanol and rotated clockwise after every mouse to avoid intra-maze odor or visual cues. All sessions were recorded using a JVC Everio HD camcorder GZ-E200 and analyzed with Kinovea video tracking software. […]

[2] = Measurement of PF04418948 in plasma and brain (LC/MS/MS); conditions: aged (20-22 mo) mice, 2.5 mg/kg/d, 6 weeks, perfused brain
Experimental: Presence of PF04418948 was measured in aged (20-22 mo) mice treated with PF04418948 2.5 mg/kg/d for 6 weeks in plasma and perfused brain by LC/MS/MS at Quintara Discovery (Hayward, Calif., USA). In brief, brain samples were first homogenized in 2 volumes of ice-cold water, then further 2 fold diluted in blank plasma. An aliquot of 20 μL of each plasma sample or plasma diluted tissue homogenate was treated with 100 μL of acetonitrile containing internal standard (Terfenadine). The mixture was vortexed on a shaker for 15 minutes and subsequently centrifuged at 4000 rpm for 15 minutes. An aliquot of 70 μL of the extract was transferred to an injection plate and reconstituted in 70 μL of water for LC/MS/MS injection. Calibration standards and quality control samples were prepared by spiking the testing compound into blank plasma followed by processing with the samples.

aged mice [3] = test: Nanostring transcriptomics of peritoneal macrophages from treated mice
Experimental: For gene expression analysis on the NanoString nCounter system, 100 ng of RNA was hybridized to a multiplexed nucleotide probe pool for 16 hours at 65° C. Enriched targets were purified and quantified using the nCounter MAX Analysis System. NanoString data analysis was performed by Canopy Biosciences (St. Louis, Mo.). Raw counts were normalized using the geometric mean of both positive control probes (technical variability) and housekeeping gene probes (assay input variability). Normalized data was uploaded to the interactive analysis platform Rosalind (https://rosalind.onramp.bio/), with a HyperScale architecture developed by OnRamp BioInformatics, Inc. (San Diego, Calif.) Read Distribution percentages, violin plots, identity heatmaps, and sample MDS plots were generated as part of the QC step. The limma R library1 was used to calculate fold changes and p-values and perform optional covariate correction. Clustering of genes for the final heatmap of differentially expressed genes was done using the PAM (Partitioning Around Medoids) method using the fpc R library2 that takes into consideration the direction and type of all signals on a pathway, the position, role and type of every gene, etc. Functional enrichment analysis of pathways, gene ontology, domain structure and other ontologies was performed using HOMER3. Several database sources were referenced for enrichment analysis, including Interpro4, NCBI5, MSigDB6,7, REACTOME8, WikiPathways9. Enrichment was calculated relative to a set of background genes relevant for the experiment.

[4] = aged mice, 2.5 mg/kg/d, 6 weeks

COc1ccc2cc(OCC3(C(=O)O)CN(C(=O)c4ccc(F)cc4)C3)ccc2c1 [PF-04418948]
hippocampal memory function (aged mice [1]): restored hippocampal memory function as well as LTP to youthful levels
brain level (whole brain lysates) [2]: not detected
expression of glycolytic and TCA genes in peritoneal macrophages (aged mice [3]; aged (20-22 mo) mice, 2.5 mg/kg/d for 6 weeks): restores expression levels of glycolytic and TCA genes in aged mice
age-related upregulation of pro-inflammatory gene transcripts and downregulation of glycolytic and TCA gene transcripts in macrophages (aged mice [3]; [4]): reciprocally reversed
top differentially regulated chemokine and cytokine transcripts in peritoneal macrophages (aged mice [3]; [4]): shifts expression towards young macrophage levels
transcriptome of peritoneal macrophages (clustering of 1449 genes, PCA) (aged mice [3]; young (3-4 mo) and aged (20-22 mo) mice, 2.5 mg/kg/d, 6 weeks, 2.5 mg/kg/day): cluster with young mice treated with vehicle or PF-04418948; also recorded: significant shift away from vehicle-treated aged mice toward young macrophages
